Data as given in patent publication US20200017495A1, “NOVEL HETEROCYCLIC COMPOUNDS AND THEIR USE IN PREVENTING OR TREATING BACTERIAL INFECTIONS” (priority 2017, published 2020).

What was measured:
Test in all cases: MIC of compounds alone and combined with antibacterials, broth microdilution (CLSI)
Format in all cases: cell-based
[1] = tested on: Citrobacter koseri (CKR) isolates
Outline: (§1)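 First, log-phase suspensions are brought to 5.10^5 CFU/mL final in ca-MHB; plates then incubate 16-20 h at 35° C in air. Growth is judged visually, giving the compound MIC alone and the antibacterial MIC at each compound concentration.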

[2] = tested on: Citrobacter freundii (CFR) isolates
Outline: as §1

[3] = tested on: Serratia marcescens (SMA) isolates
Outline: as §1

[4] = tested on: Providencia rettgeri (PRE) isolates
Outline: as §1

CC(C)(O/N=C(\C(=O)N[C@@H]1C(=O)N2C(C(=O)[O-])=C(C[n+]3ccccc3)CS[C@H]12)c1csc(N)n1)C(=O)O [CAZ, Ceftazidime]
MIC ATB in combination ([1]; CKO ROU, AF2 @ 8 μg/mL): 1 µg/mL | MIC ATB in combination ([1]; CKO ROU, AF3 @ 8 μg/mL): 1 µg/mL | MIC ATB in combination ([1]; CKO UFR149, AF2 @ 8 μg/mL): <0.25 µg/mL | MIC ATB in combination ([1]; CKO UFR149, AF3 @ 8 μg/mL): <0.25 µg/mL | MIC ATB in combination ([1]; CKO UFR150, AF2 @ 8 μg/mL): 4 µg/mL | MIC ATB in combination ([1]; CKO UFR150, AF3 @ 8 μg/mL): 4 µg/mL | MIC ([1]; strain CKO ROU, genotype TEM-1, SHV-12, CTX-M-15, OXA-1, OXA-48): 1 µg/mL | MIC ([1]; strain CKO UFR149, genotype OXA-48): >128 µg/mL | MIC ([1]; strain CKO UFR150, genotype TEM-1, OXA-48): 4 µg/mL | MIC ATB in combination ([2]; CFR UFR10, AF2 @ 8 μg/mL): <=0.25 μg/mL | MIC ATB in combination ([2]; CFR UFR10, AF3 @ 8 μg/mL): <0.25 µg/mL | MIC ATB in combination ([2]; CFR UFR11, AF2 @ 8 μg/mL): 8 µg/mL | MIC ATB in combination ([2]; CFR UFR11, AF3 @ 8 μg/mL): 4 µg/mL | MIC ATB in combination ([2]; CFR UFR37, AF2 @ 8 μg/mL): 8 µg/mL | MIC ATB in combination ([2]; CFR UFR37, AF3 @ 8 μg/mL): <0.25 µg/mL | MIC ATB in combination ([2]; CFR UFR83, AF2 @ 8 μg/mL): >128 µg/mL | MIC ATB in combination ([2]; CFR UFR83, AF3 @ 8 μg/mL): >128 µg/mL | MIC ATB in combination ([2]; CFR UFR146, AF2 @ 8 μg/mL): 2 µg/mL | MIC ATB in combination ([2]; CFR UFR146, AF3 @ 8 μg/mL): 1 µg/mL | MIC ATB in combination ([2]; CFR UFR248, AF2 @ 8 μg/mL): <0.25 µg/mL | MIC ATB in combination ([2]; CFR UFR248, AF3 @ 8 μg/mL): <0.25 µg/mL | MIC ATB in combination ([2]; CFR UFR249, AF2 @ 8 μg/mL): <=0.25 μg/mL | MIC ATB in combination ([2]; CFR UFR249, AF3 @ 8 μg/mL): <0.25 µg/mL | MIC ATB in combination ([2]; CFR UFR250, AF2 @ 8 μg/mL): <=0.25 μg/mL | MIC ATB in combination ([2]; CFR UFR250, AF3 @ 8 μg/mL): <0.25 µg/mL | MIC ([2]; strain CFR UFR11, genotype TEM-1, OXA-1, OXA-48): 8 µg/mL | MIC ([2]; strain CFR UFR37, genotype TEM-1, CTX-M-15, NDM-1): >128 µg/mL | MIC ([2]; strain CFR UFR83, genotype TEM-3, AmpC): >128 µg/mL | MIC ([2]; strain CFR UFR146, genotype TEM-1, KPC-2): 32 µg/mL | MIC ([2]; strain CFR UFR147, genotype TEM-1, CTX-M-15, OXA-1, OXA-181, OXA-10, OXA-9, NDM-1, ArmA, dfrA12, aadA2, antibiotic alone): >128 µg/mL | MIC ATB in combination ([2]; strain CFR UFR147, with AF2 @ 8 μg/mL): <0.25 µg/mL | MIC ATB in combination ([2]; strain CFR UFR147, with AF3 @ 8 μg/mL): <0.25 µg/mL | MIC ([2]; strain CFR UFR148, genotype TEM-1, TEM-2, CTX-M-15, NDM-1, antibiotic alone): >128 µg/mL | MIC ATB in combination ([2]; strain CFR UFR148, with AF2 @ 8 μg/mL): <0.25 µg/mL | MIC ATB in combination ([2]; strain CFR UFR148, with AF3 @ 8 μg/mL): <0.25 µg/mL | MIC ([2]; strain CFR UFR249, genotype TEM-1, CTX-M-15): 64 µg/mL | MIC ATB in combination ([2]; strain CFR UFR251, with AF2 @ 8 μg/mL): 0.5 µg/mL | MIC ATB in combination ([2]; strain CFR UFR251, with AF3 @ 8 μg/mL): <0.25 µg/mL | MIC ([2]; strain CFR UFR252, genotype VIM-2, antibiotic alone): 64 µg/mL | MIC ATB in combination ([2]; strain CFR UFR252, with AF2 @ 8 μg/mL): 8 µg/mL | MIC ATB in combination ([2]; strain CFR UFR252, with AF3 @ 8 μg/mL): 16 µg/mL | MIC ([2]; strain CFR UFR253, genotype TEM-1, SHV-12, OXA-48): >128 µg/mL | MIC ATB in combination ([2]; strain CFR UFR253, with AF2 @ 8 μg/mL): 8 µg/mL | MIC ATB in combination ([2]; strain CFR UFR253, with AF3 @ 8 μg/mL): 4 µg/mL | MIC ATB in combination ([2]; strain CFR UFR254, with AF2 @ 8 μg/mL): <0.25 µg/mL | MIC ATB in combination ([2]; strain CFR UFR254, with AF3 @ 8 μg/mL): 0.5 µg/mL | MIC ATB in combination ([3]; SMA UFR30, AF2 @ 8 μg/mL): 0.5 µg/mL | MIC ATB in combination ([3]; SMA UFR30, AF3 @ 8 μg/mL): <=0.25 μg/mL | MIC ATB in combination ([3]; SMA UFR134, AF2 @ 8 μg/mL): <=0.25 μg/mL | MIC ATB in combination ([3]; SMA UFR134, AF3 @ 8 μg/mL): 0.5 µg/mL | MIC ATB in combination ([3]; SMA UFR135, AF2 @ 8 μg/mL): 2 µg/mL | MIC ATB in combination ([3]; SMA UFR135, AF3 @ 8 μg/mL): 4 µg/mL | MIC ATB in combination ([3]; SMA UFR136, AF2 @ 8 μg/mL): 2 µg/mL | MIC ATB in combination ([3]; SMA UFR136, AF3 @ 8 μg/mL): 1 µg/mL | MIC ATB in combination ([3]; SMA UFR137, AF2 @ 8 μg/mL): <=0.25 μg/mL | MIC ATB in combination ([3]; SMA UFR137, AF3 @ 8 μg/mL): 0.5 µg/mL | MIC ATB in combination ([3]; SMA UFR138, AF2 @ 8 μg/mL): 0.5 µg/mL | MIC ATB in combination ([3]; SMA UFR138, AF3 @ 8 μg/mL): <=0.25 μg/mL | MIC ATB in combination ([3]; SMA UFR139, AF2 @ 8 μg/mL): 1 µg/mL | MIC ATB in combination ([3]; SMA UFR139, AF3 @ 8 μg/mL): <=0.25 μg/mL | MIC ATB in combination ([3]; SMA UFR141, AF2 @ 8 μg/mL): <=0.25 μg/mL | MIC ATB in combination ([3]; SMA UFR141, AF3 @ 8 μg/mL): 0.5 µg/mL | MIC ATB in combination ([3]; SMA UFR142, AF2 @ 8 μg/mL): 0.5 µg/mL | MIC ATB in combination ([3]; SMA UFR142, AF3 @ 8 μg/mL): 0.5 µg/mL | MIC ATB in combination ([3]; SMA UFR143, AF2 @ 8 μg/mL): <=0.25 μg/mL | MIC ATB in combination ([3]; SMA UFR143, AF3 @ 8 μg/mL): <=0.25 μg/mL | MIC ATB in combination ([3]; SMA UFR239, AF2 @ 8 μg/mL): 4 µg/mL | MIC ATB in combination ([3]; SMA UFR239, AF3 @ 8 μg/mL): 0.5 µg/mL | MIC ([3]; strain SMA UFR30, genotype OXA-405): 8 µg/mL | MIC ([3]; strain SMA UFR134, genotype TEM-1, BES-1): 8 µg/mL | MIC ([3]; strain SMA UFR135, genotype TEM-1, KPC-2): 32 µg/mL | MIC ([3]; strain SMA UFR136, genotype TEM-1, SHV-12, KPC-2): >256 µg/mL | MIC ([3]; strain SMA UFR137, genotype SME-1): 0.5 µg/mL | MIC ([3]; strain SMA UFR138, genotype SME-1): <=0.25 μg/mL | MIC ([3]; strain SMA UFR139, genotype SME-2): <=0.25 μg/mL | MIC ([3]; strain SMA UFR140, genotype IMP-1): >128 µg/mL | MIC ATB in combination ([3]; strain SMA UFR140, with AF2 @ 8 μg/mL): >128 µg/mL | MIC ATB in combination ([3]; strain SMA UFR140, with AF3 @ 8 μg/mL): >128 µg/mL | MIC ([3]; strain SMA UFR141, genotype OXA-48): 1 µg/mL | MIC ([3]; strain SMA UFR142, genotype OXA-48): 0.5 µg/mL | MIC ([3]; strain SMA UFR143, genotype CTX-M-15, OXA-1, OXA-48): 64 µg/mL | MIC ([3]; strain SMA UFR238, genotype OXA-48): 0.5 µg/mL | MIC ATB in combination ([3]; strain SMA UFR238, with AF2 @ 8 μg/mL): 0.5 µg/mL | MIC ATB in combination ([3]; strain SMA UFR238, with AF3 @ 8 μg/mL): <=0.25 μg/mL | MIC ([3]; strain SMA UFR239, genotype ESAC): 32 µg/mL | MIC ATB in combination ([4]; PRE UFR99, AF2 @ 8 μg/mL): >128 µg/mL | MIC ATB in combination ([4]; PRE UFR99, AF3 @ 8 μg/mL): >128 µg/mL | MIC ATB in combination ([4]; strain PRE UFR96, with AF2 @ 8 μg/mL): <0.25 µg/mL | MIC ATB in combination ([4]; strain PRE UFR96, with AF3 @ 8 μg/mL): <0.25 µg/mL | MIC ATB in combination ([4]; strain PRE UFR97, with AF2 @ 8 μg/mL): >128 µg/mL | MIC ATB in combination ([4]; strain PRE UFR97, with AF3 @ 8 μg/mL): >128 µg/mL | MIC ([4]; strain PRE UFR236, genotype TEM-1, OXA-48): 32 µg/mL | MIC ATB in combination ([4]; strain PRE UFR236, with AF2 @ 8 μg/mL): 0.5 µg/mL | MIC ATB in combination ([4]; strain PRE UFR236, with AF3 @ 8 μg/mL): <=0.25 μg/mL
